# Reference: ChEMBL document CHEMBL1156586, “Structure-activity relationship studies of permeability modulating peptide AT-1002” (Bioorg Med Chem Lett, 2008)
# *1 amine or outer side, *2 acyl side, *3 side chain or, on linkers, in order; H or OH if unused. Where a SMILES comes first, the peptide text is derived from it. Bridges are numbered along the chain shown (N, C = ends). Roman numbers before positions name the chains, in order. [ ]: non-standard residue; d: D form. X1 = O=C([C@H](/C=C/c1ccccc1)N[*:1])[*:2]; Leu(4,5-dehydro) = C=C(C)C[C@H](N)C(=O)O; Phe(4-CN) = N#Cc1ccc(C[C@H](N)C(=O)O)cc1; Phe(3-Me) = Cc1cccc(C[C@H](N)C(=O)O)c1; Met(O2) = CS(=O)(=O)CC[C@H](N)C(=O)O; Ala(cPr) = N[C@@H](CC1CC1)C(=O)O; 2Pal = N[C@@H](Cc1ccccn1)C(=O)O; Met(O) = CS(=O)CC[C@H](N)C(=O)O; 2Thi = N[C@@H](Cc1cccs1)C(=O)O; Cha = N[C@@H](CC1CCCCC1)C(=O)O; Tle = CC(C)(C)[C@H](N)C(=O)O; Dab = NCC[C@H](N)C(=O)O; Nva = CCC[C@H](N)C(=O)O; Abu = CC[C@H](N)C(=O)O
# Assays:
# Caco-2 [1] = assay: Effect on integrity in human Caco-2 cell monolayers assessed as transepithelial resistance by epithelial voltohmmeter relative to control; assay type: ADME, cell-based; set-up: concentration or dose not given beside the values
# Caco-2 [2] = assay: Permeability from apical to basolateral side of human Caco-2 cell monolayers assessed as increase in lucifer yellow flux at 7.0 mM relative to untreated control; assay type: ADME, cell-based; settings: caco-2, 7000 µM
SMILES,Activity (Caco-2 [1]),fold change (FC) (Caco-2 [2])
CC[C@H](C)[C@H](NC(=O)[C@H](Cc1cccc(C)c1)NC(=O)[C@@H](N)Cc1ccccc1)C(=O)NCC(=O)N[C@@H](CCCNC(=N)N)C(=O)N[C@@H](CC(C)C)C(=O)O (H-F[Phe(3-Me)]IGRL-OH),101%,0.6
CC[C@H](C)[C@H](NC(=O)[C@H](CS)NC(=O)[C@@H](N)Cc1ccccc1)C(=O)NCC(=O)O (H-FCIG-OH),103%,2.2
CC[C@H](C)[C@H](NC(=O)[C@H](CS)NC(=O)[C@@H](N)Cc1ccccc1)C(=O)NCC(=O)N[C@@H](CCCNC(=N)N)C(=O)O (H-FCIGR-OH),21%,31
CC[C@H](C)[C@H](NC(=O)[C@H](CSSC[C@H](NC(=O)[C@@H](N)Cc1ccccc1)C(=O)N[C@H](C(=O)NCC(=O)N[C@@H](CCCNC(=N)N)C(=O)N[C@@H](CC(C)C)C(=O)O)[C@@H](C)CC)NC(=O)[C@@H](N)Cc1ccccc1)C(=O)NCC(=O)N[C@@H](CCCNC(=N)N)C(=O)N[C@@H](CC(C)C)C(=O)O (I: H-FCIGRL-OH / II: H-FCIGRL-OH; disulfide I:2-II:2),137%,0.7
CC[C@H](C)[C@H](NC(=O)[C@H](Cc1ccc(O)cc1)NC(=O)[C@@H](N)Cc1ccccc1)C(=O)NCC(=O)N[C@@H](CCCNC(=N)N)C(=O)N[C@@H](CC(C)C)C(=O)O (H-FYIGRL-OH),118%,0.6
"C=C(C)C[C@H](NC(=O)[C@@H](N)Cc1ccccc1)C(=O)N[C@H](C(=O)NCC(=O)N[C@@H](CCCNC(=N)N)C(=O)N[C@@H](CC(C)C)C(=O)O)[C@@H](C)CC (H-F[Leu(4,5-dehydro)]IGRL-OH)",115%,1.9
CC[C@H](C)[C@H](N)C(=O)NCC(=O)N[C@@H](CCCNC(=N)N)C(=O)N[C@@H](CC(C)C)C(=O)O (H-IGRL-OH),70%,0.9
CC[C@H](C)[C@H](NC(=O)[C@H](CCC(=O)O)NC(=O)[C@@H](N)Cc1ccccc1)C(=O)NCC(=O)N[C@@H](CCCNC(=N)N)C(=O)N[C@@H](CC(C)C)C(=O)O (H-FEIGRL-OH),104%,1.3
CC[C@H](C)[C@H](NC(=O)[C@H](CC(=O)O)NC(=O)[C@@H](N)Cc1ccccc1)C(=O)NCC(=O)N[C@@H](CCCNC(=N)N)C(=O)N[C@@H](CC(C)C)C(=O)O (H-FDIGRL-OH),148%,0.7
CC[C@H](C)[C@H](NC(=O)[C@@H](NC(=O)[C@@H](N)Cc1ccccc1)C(C)(C)C)C(=O)NCC(=O)N[C@@H](CCCNC(=N)N)C(=O)N[C@@H](CC(C)C)C(=O)O (H-F[Tle]IGRL-OH),35%,6.7
CC[C@H](C)[C@H](NC(=O)[C@H](CS)NC(=O)[C@@H](N)Cc1ccccc1)C(=O)NCC(=O)N[C@@H](CCCNC(=N)N)C(=O)N[C@@H](CC(C)C)C(=O)O (H-FCIGRL-OH),11%,52
C=CC[C@H](NC(=O)[C@@H](N)Cc1ccccc1)C(=O)N[C@H](C(=O)NCC(=O)N[C@@H](CCCNC(=N)N)C(=O)N[C@@H](CC(C)C)C(=O)O)[C@@H](C)CC,20%,103
CCC[C@H](NC(=O)[C@@H](N)Cc1ccccc1)C(=O)N[C@H](C(=O)NCC(=O)N[C@@H](CCCNC(=N)N)C(=O)N[C@@H](CC(C)C)C(=O)O)[C@@H](C)CC (H-F[Nva]IGRL-OH),98%,1.6
CC[C@H](C)[C@H](NC(=O)[C@H](Cc1cccs1)NC(=O)[C@@H](N)Cc1ccccc1)C(=O)NCC(=O)N[C@@H](CCCNC(=N)N)C(=O)N[C@@H](CC(C)C)C(=O)O (H-F[2Thi]IGRL-OH),119%,1.4
CC[C@H](C)[C@H](NC(=O)[C@H](CCN)NC(=O)[C@@H](N)Cc1ccccc1)C(=O)NCC(=O)N[C@@H](CCCNC(=N)N)C(=O)N[C@@H](CC(C)C)C(=O)O (H-F[Dab]IGRL-OH),94%,2.1
CC[C@H](C)[C@H](NC(=O)[C@H](CC(N)=O)NC(=O)[C@@H](N)Cc1ccccc1)C(=O)NCC(=O)N[C@@H](CCCNC(=N)N)C(=O)N[C@@H](CC(C)C)C(=O)O (H-FNIGRL-OH),83%,1.5
CC[C@H](C)[C@H](NC(=O)[C@H](Cc1ccccn1)NC(=O)[C@@H](N)Cc1ccccc1)C(=O)NCC(=O)N[C@@H](CCCNC(=N)N)C(=O)N[C@@H](CC(C)C)C(=O)O (H-F[2Pal]IGRL-OH),148%,0.5

SMILES,Activity (Caco-2 [1]),fold change (FC) (Caco-2 [2])
CC[C@H](C)[C@H](NC(=O)[C@H](CCCNC(=N)N)NC(=O)[C@@H](N)Cc1ccccc1)C(=O)NCC(=O)N[C@@H](CCCNC(=N)N)C(=O)N[C@@H](CC(C)C)C(=O)O (H-FRIGRL-OH),102%,2.2
CC[C@H](C)[C@H](NC(=O)[C@H](CCS(C)(=O)=O)NC(=O)[C@@H](N)Cc1ccccc1)C(=O)NCC(=O)N[C@@H](CCCNC(=N)N)C(=O)N[C@@H](CC(C)C)C(=O)O (H-F[Met(O2)]IGRL-OH),110%,0.7
CC[C@H](NC(=O)[C@@H](N)Cc1ccccc1)C(=O)N[C@H](C(=O)NCC(=O)N[C@@H](CCCNC(=N)N)C(=O)N[C@@H](CC(C)C)C(=O)O)[C@@H](C)CC (H-F[Abu]IGRL-OH),96%,1.1
CC[C@H](C)[C@H](NC(=O)[C@H](CCCCN)NC(=O)[C@@H](N)Cc1ccccc1)C(=O)NCC(=O)N[C@@H](CCCNC(=N)N)C(=O)N[C@@H](CC(C)C)C(=O)O (H-FKIGRL-OH),110%,0.4
CC[C@H](C)[C@H](NC(=O)[C@H](/C=C/c1ccccc1)NC(=O)[C@@H](N)Cc1ccccc1)C(=O)NCC(=O)N[C@@H](CCCNC(=N)N)C(=O)N[C@@H](CC(C)C)C(=O)O (H-F[X1]IGRL-OH),113%,1
CC[C@H](C)[C@H](NC(=O)[C@H](CC[S+](C)[O-])NC(=O)[C@@H](N)Cc1ccccc1)C(=O)NCC(=O)N[C@@H](CCCNC(=N)N)C(=O)N[C@@H](CC(C)C)C(=O)O (stereo partly specified) (H-F[Met(O)]IGRL-OH),106%,1.1
CC[C@H](C)[C@H](NC(=O)[C@H](CCC(N)=O)NC(=O)[C@@H](N)Cc1ccccc1)C(=O)NCC(=O)N[C@@H](CCCNC(=N)N)C(=O)N[C@@H](CC(C)C)C(=O)O (H-FQIGRL-OH),112%,1.5
CC[C@H](C)[C@H](NC(=O)[C@H](CO)NC(=O)[C@@H](N)Cc1ccccc1)C(=O)NCC(=O)N[C@@H](CCCNC(=N)N)C(=O)N[C@@H](CC(C)C)C(=O)O (H-FSIGRL-OH),94%,2.1
CC[C@H](C)[C@H](NC(=O)[C@H](CC1CC1)NC(=O)[C@@H](N)Cc1ccccc1)C(=O)NCC(=O)N[C@@H](CCCNC(=N)N)C(=O)N[C@@H](CC(C)C)C(=O)O (H-F[Ala(cPr)]IGRL-OH),111%,0.6
CC[C@H](C)[C@H](NC(=O)[C@H](Cc1cnc[nH]1)NC(=O)[C@@H](N)Cc1ccccc1)C(=O)NCC(=O)N[C@@H](CCCNC(=N)N)C(=O)N[C@@H](CC(C)C)C(=O)O (H-FHIGRL-OH),102%,1
CC[C@H](C)[C@H](NC(=O)[C@H](CC1CCCCC1)NC(=O)[C@@H](N)Cc1ccccc1)C(=O)NCC(=O)N[C@@H](CCCNC(=N)N)C(=O)N[C@@H](CC(C)C)C(=O)O (H-F[Cha]IGRL-OH),68%,2.1
CC[C@H](C)[C@H](NC(=O)[C@@H](NC(=O)[C@@H](N)Cc1ccccc1)C(C)C)C(=O)NCC(=O)N[C@@H](CCCNC(=N)N)C(=O)N[C@@H](CC(C)C)C(=O)O (H-FVIGRL-OH),50%,5.7
CC[C@H](C)[C@H](NC(=O)[C@@H](NC(=O)[C@@H](N)Cc1ccccc1)[C@@H](C)O)C(=O)NCC(=O)N[C@@H](CCCNC(=N)N)C(=O)N[C@@H](CC(C)C)C(=O)O (H-FTIGRL-OH),66%,3.9
CC[C@H](C)[C@H](NC(=O)[C@H](Cc1ccc(C#N)cc1)NC(=O)[C@@H](N)Cc1ccccc1)C(=O)NCC(=O)N[C@@H](CCCNC(=N)N)C(=O)N[C@@H](CC(C)C)C(=O)O (H-F[Phe(4-CN)]IGRL-OH),118%,0.3
CC[C@H](C)[C@H](NC(=O)[C@H](CC(C)C)NC(=O)[C@@H](N)Cc1ccccc1)C(=O)NCC(=O)N[C@@H](CCCNC(=N)N)C(=O)N[C@@H](CC(C)C)C(=O)O (H-FLIGRL-OH),121%,1
C=CC[C@@H](NC(=O)[C@@H](N)Cc1ccccc1)C(=O)N[C@H](C(=O)NCC(=O)N[C@@H](CCCNC(=N)N)C(=O)N[C@@H](CC(C)C)C(=O)O)[C@@H](C)CC,130%,0.8
